Assays:
[1] = target: T1, LanGT2 (Streptomyces cyanogenus, UniProt Q9ZGC0); experiment: X-ray crystal structure; format: binding; conditions: nucleotide-sugar site; TDP-olivose had broken down, product TDP bound
T1 sequence (Q9ZGC0 1-373): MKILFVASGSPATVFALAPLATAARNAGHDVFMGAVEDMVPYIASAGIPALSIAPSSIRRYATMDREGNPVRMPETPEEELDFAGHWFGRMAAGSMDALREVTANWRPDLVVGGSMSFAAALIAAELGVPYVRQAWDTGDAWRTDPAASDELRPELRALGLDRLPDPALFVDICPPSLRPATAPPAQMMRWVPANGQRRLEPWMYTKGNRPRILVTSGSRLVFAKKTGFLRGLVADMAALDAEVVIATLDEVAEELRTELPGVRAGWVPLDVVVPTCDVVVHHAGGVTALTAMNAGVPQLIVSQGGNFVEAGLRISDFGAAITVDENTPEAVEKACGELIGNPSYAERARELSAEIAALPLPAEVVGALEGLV

[2] = target: T1, LanGT2; experiment: X-ray crystal structure; format: binding; conditions: non-hydrolyzable substrate analogue; nucleotide-sugar site; 1.85 Å

Structure (SMILES) | X-ray crystal structure (crystals treated with TDP-olivose) [1] | X-ray crystal structure (crystal soaking) [2]
Cc1cn([C@H]2C[C@H](O)[C@@H](COP(=O)(O)OP(=O)(O)O)O2)c(=O)[nH]c1=O [TDP] | thus resulting in structures that invariably only had the product TDP bound | –
Cc1cn([C@H]2C[C@H](O)[C@@H](COP(=O)(O)OP(=O)(O)O[C@@H]3C[C@@H](O)[C@H](O)[C@@H](C)C3)O2)c(=O)[nH]c1=O [compound 8, TDP-carba-D-olivose] | – | LanGT2 crystals were soaked with the synthetic TDP-carba-D-olivose (TcO)

Source: publication PMC4376353 (Angewandte Chemie (International ed. in English), 2015)
